Assay results from patent publication US10143711B2, “Pathways to generate hair cells” (Massachusetts Eye & Ear Infirmary, priority 2008, dated 2018).

Assays:
[1] = system: Atoh1 and β-catenin; experiment: β-catenin and Atoh1 expression in bone marrow derived MSCs on Notch inhibition and β-catenin activation; type: cell-based, human
From the text: Notch signaling was inhibited using a γ-secretase inhibitor (DAPT) and β-catenin was activated using a GSK3β inhibitor (GSKi). […] Altered Notch activity was confirmed using CBF-1 luciferase reporter.
Mesenchymal stem cells (MSCs) were isolated from human bone marrow using the methods described by Jeon et al. (Mol. Cell. Neurosci., 34(1):59-68, (2007)). Cells were expanded once before use and cultured in MEM-α cell culture media (Sigma-Aldrich) supplemented with 9% horse serum, 9% fetal calf serum, and penicillin (100 U/mL) and streptomycin (100 μg/mL).

[2] = system: Atoh1; experiment: Gene silencing with siRNA in neural progenitor cells and Neuro2a (RT-PCR); type: cell-based, mouse; details: 200 nM siRNA; for decrease of Atoh1 expression: harvested after 48 hours, neural progenitor cells and Neuro2a
Method: The data shown in Examples 1-3 was corroborated using gene silencing. Briefly, siRNA were designed to silence Atoh1 (NM 007500.4, NM 005172.1) and β-catenin (NM_007614.2 and NM_001904.3), as shown below: Atoh1:
200 nM of each siRNA were transfected using the GeneSilencer™ transfection reagent at 5 μL/mL. Cells were incubated in the presence of the transfection mix for 16 hours and were harvested following a total of 48 hours. Non-targetting siRNA was used as control. Gene silencing was confirmed using RT-PCR. Cells were also transfected with Atoh1, β-catenin, or GFP using the methods described above.

Compound	β-catenin expression ([1]; human bone marrow MSCs, DAPT used at 10 μM and 50 μM)	decrease of Atoh1 expression [2]	Atoh1 expression ([1]; MSCs with γ-secretase treatment and siRNA suppression of β-catenin)	β-catenin expression levels ([2]; all cell types tested)
C[C@H](NC(=O)Cc1cc(F)cc(F)c1)C(=O)N[C@H](C(=O)OC(C)(C)C)c1ccccc1 [γ-secretase inhibitor, N—[N-(3,5-difluorophenacetyl)-L-alanyl]-(S)-phenylglycine t-butyl ester]	increased	–	–	–
Atoh1 siRNA: siRNA designed to silence Atoh1, SEQ ID NO:16 (GCAACGUUAUCCCGUCCUUUAACAGCGAUGAUGGCACA; listed as RNA, chemistry not given here)	–	about 45%	–	–
β-catenin siRNA: siRNA designed to silence β-catenin, SEQ ID NO:17 (GCGCUUGGCUGAACCAUCAUUGUGAAAUUCUUGGCUAUUAUU; listed as RNA, chemistry not given here)	–	about 40%	reduced	suppressed
